Measurements taken from US20230313181A1, “HISTIDINE-LYSINE POLYMERS AND METHODS FOR DELIVERING MRNA USING THE SAME” (UNIVERSITY OF MARYLAND, BALTIMORE, priority 2019, published 2023).
Bridges are numbered along the chain shown (N, C = ends). Roman numbers before positions name the chains, in order. Where no end group is shown, it is not given here.

Tests used:
[1] = system: mRNA; assay: Gel retardation assay of HK polymer/mRNA polyplexes; type: physicochemical; details: 1:2 and 1:1 ratios (wt:wt; peptide:mRNA)
Method: FIG. 3. Gel retardation assay. After H3K(+H)4b or H3K4b carriers were mixed with mRNA at the various ratios shown in the figure (wt:wt; peptide:mRNA, mRNA was 1 μg in each) for 30 min, the HK polyplexes were loaded onto the gel (1% agarose). Electrophoresis was carried out at a constant voltage of 75 V for 30 min in TAE buffer and then stained with Sybr Gold as detailed herein. In first lane, RNA standard (New England Biolabls, B0363A) was loaded whereas in the second lane, the control, luciferase mRNA without a carrier was loaded into the well. In subsequent lanes, various ratios of mRNA:HK were loaded into wells.
Gel Retardation Assay. Various amounts of HK polymers were mixed with […] of mRNA and incubated for 30 min at room temperature. Specifically, the following HK polymer/mRNA ratios (w/w) were prepared in water: 1/2; 1/1; 2/1, 4/1, 8/1. After 30 min, the HK polyplex was loaded onto the gel (1% agarose, Sigma-Aldrich; 10× BlueJuice Gel loading buffer, ThermoFisher Scientific), electrophoresis was then carried out at a constant voltage of 75 V for 30 min in TAE buffer (Quality Biologicals, Gaithersburg, MD). The mRNA was stained with Sybr Gold Nucleic Acid dye (SG, 1×) (ThermoFisher Scientific) for 30 min before exposure to the UV imager (ChemiDoc Touch, BIO-RAD, Hercules, CA).

[2] = system: MDA-MB-231 cells; assay: In vitro mRNA transfection with HK polyplexes (luciferase mRNA, luciferase activity); type: cell-based; details: for RLU/μg-Protein (luciferase activity): mRNA 1 μg, 24 h
Method: FIG. 1. Comparison of H3K(+H)4b and H3K4b peptides as carriers of mRNA. To form the HK polyplexes, the mRNA (1 μg) was mixed with 3 different ratios of the HK ([…]) polymer for 30 minutes. The HK polyplexes were then added to the cells for 24 h before the luciferase activity was measured. ****, H3K(+H)4b vs H3K4b, P<0.0001.
In vitro mRNA Transfection. Several HK polymers were examined for their ability to carry a luciferase-expressing mRNA (CleanCap Firefly Luciferase mRNA, Trilink Biotechnologies, Inc, San Diego, CA) into MDA-MB-231 cells (America Type Tissue Culture, Manassas, VA). In brief, 3×10^4 cells were plated into a 24-well plate containing 500 μl of DMEM and 10% fetal bovine serum (ThermoFisher Scientific, Waltham, MA). After 24 h, when the cells were 60 to 80% confluent, the media in each well was changed to Opti-MEM (ThermoFisher Scientific). To prepare HK polyplexes, mRNA (1 μg) in 50 μl of Opti-MEM was briefly mixed well with one of the HK polymers (4 to 12 μg) and maintained at room temperature for 30 min. This polyplex was then added dropwise to the cells. After four h, the Opti-MEM media was removed and replaced with 0.5 ml of DMEM/10% serum (0.5 ml). Twenty-four hours later, the cells were lysed, and the luciferase activity (Promega Corporation, Madison, WI) was measured.
To obtain the data in Table 4, luciferase-expressing mRNA (1 μg) in 50 μl of Opti-MEM was briefly mixed with one of the HK polymers (4, 8, or 12 μg) and maintained at room temperature for 30 min. The resulting polyplexes were added dropwise to the MDA-NM-231 cells and after four h, the Opti-MEM media was removed and replaced with DMEM/10% serum. Twenty-four hours later, the cells were lysed, and the luciferase activity was measured

[3] = Cell viability assay (trypan blue exclusion); type: cell-based; details: human, MDA-MB-231 cells, HK polymer 4 μg or polyplex (4 μg HK; 1 μg mRNA), then 19 h DMEM/10% FBS
Method: Cell Viability Assay. MDA-MB-231 cells were seeded at 5.0×10^4/well in a 24-tissue culture plate and incubated overnight in DMEM supplemented with 10% FBS serum. The media was then changed to Opti-MEM and the cells were treated with either the HK polymer (4 μg) or the HK polyplex (4 μg HK; 1 μg mRNA) for 5 h. After the media was changed to DMEM/10% FBS for 19 h, the cell viability was measured using the trypan blue cell exclusion assay (Trypan Blue solution, 0.4%, Sigma-Aldrich, St. Louis, MO).
After the medium was changed to Opti-MEM in cell cultures of the MDA-MB-231 cells used in the experiment described above, either the HK polymer (4 μg) or the HK polyplex (4 μg HK; 1 μg mRNA) was added dropwise to the cells and incubated for 5 h. The media was then changed to DMEM/10% FBS for 19 h and cell viability was determined using the trypan cell exclusion assay.

[4] = system: mRNA; assay: Heparin displacement assays (gel electrophoresis and Sybr Gold dye intercalation); type: physicochemical; details: HK:mRNA 4:1 wt/wt
Method: FIG. 4. Heparin Displacement Assays. After HK polyplexes were formed (wt:wt; HK:mRNA; 4 μg:1 μg), different concentrations of heparin […] were incubated with these for 30 min. A. Gel Retardation. The HK polyplexes were loaded on the agarose gel (1%), and electrophoresis was carried out and stained with Sybr Gold. B. Fluorescent dye intercalation. After the HK polyplexes were formed and incubated with several concentrations of heparin, the Sybr Gold nucleic acid dye was incubated with the HK polyplexes for 5 mins. Fluorescence was then measured by a microplate fluorimeter (λex=497 nm, λem=520 nm) (SynergyMx, BioTek). *, P<0.05; ***, P<0.001; H3K4b or H2K vs. H3K(+H)4b.
Heparin Displacement Assays. Heparin displacement assays of HK polyplexes were done with the dye intercalation assay and with gel electrophoresis. A fluorescent assay assessed polyplexes of HK polymer and mRNA (4:1 wt/wt ratio; polymer:mRNA) formed in RNAse/DNAase free water (Corning, Manassas, VA). HK polyplexes were prepared as described previously, followed by the addition of diluted Syber Gold. For detection, working dilutions of the polyplexes (1/5 of volume), water (3/5) and Sybr Gold dye (1/5, 0.2×) were incubated for 5 minutes, and fluorescence was measured by a fluorimeter (Ex=497 nm, Em=520 nm) (SynergyMx, BioTek, Winooski, VT). The control sample was prepared with the same amount of mRNA, water, and Sybr Gold dye. For the heparin displacement, instead of water, heparin salt (Sigma-Aldrich, St. Louis, MO) solutions at different concentrations (0.5, 1, 1.5, 2, 3 μg/μl) were used, and the HK polyplexes were incubated at 37° C. for 30 min before addition of Sybr Gold.
Displacement of mRNA from HK polyplexes with heparin was also done with gel electrophoresis. After HK polyplexes were formed, different concentrations of heparin (0.5, 1.0, 1.5, 2.0, 3.0 μg/μl; volume 20 μl) were incubated with these at 37° C. for 30 min. The polyplexes were then loaded on the agarose gel (1%; 10× BlueJuice Gel loading buffer), and electrophoresis was carried out and stained with SG as described above. […]

I: KHHHKHHHKHHHHKHHHKKKK-NH2 / II: KHHHKHHHKHHHHKHHHK / III: KHHHKHHHKHHHHKHHHK / IV: KHHHKHHHKHHHHKHHHK (amide I:19-IV:C, I:20-III:C, I:21-II:C) [H3K(+H)4b]
retardation of mRNA at low ratios compared with H3K4b (in words) [1]: markedly less retarded
luciferase expression, fold greater than with H3K4b ([2]; 4:1 ratio (HK:mRNA; wt:wt)): 10 fold
effectiveness as carrier of mRNA (in words) ([2]; luciferase mRNA, HK polyplex): markedly better as a carrier of mRNA
RLU/μg-Protein (luciferase activity) ([2]; ratio mRNA:polymer 1:4 (wt:wt)): 1532.9 ± 122.9 RLU/μg-Protein
RLU/μg-Protein (luciferase activity) ([2]; ratio mRNA:polymer 1:8 (wt:wt)): 1656.3 ± 202.5 RLU/μg-Protein
RLU/μg-Protein (luciferase activity) ([2]; ratio mRNA:polymer 1:12 (wt:wt)): 1033.4 ± 197^ RLU/μg-Protein
viability at 5 h [3]: 96.3%
binding/release of mRNA and polyplex stability on exposure to heparin (in words) [4]: binds more tightly to the mRNA
